Reference: ChEMBL document CHEMBL1201862, “PubChem BioAssay data set” (2004)
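Method: 48-hour compound exposure of cells in 96-well plates, five concentrations, linear interpolation of endpoints. At the GI50, growth is halved.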 Active and inactive are the calls of the source. No stated cut-off is given here; in the data, active = GI50 up to about 1.1 µM and inactive = higher.

Experiments:
Test in all cases: growth of human tumour cells (NCI), 48 h
786-0 = tested on: 786-0
A549 = tested on: A549
ACHN = tested on: ACHN
BT-549 = tested on: BT-549
CAKI-1 = tested on: CAKI-1
CCRF-CEM = tested on: CCRF-CEM
COLO 205 = tested on: COLO 205
EKVX = tested on: EKVX
HCC 2998 = tested on: HCC 2998
HCT-116 = tested on: HCT-116
HCT-15 = tested on: HCT-15
HOP-62 = tested on: HOP-62
HT-29 = tested on: HT-29
Hs-578T = tested on: Hs-578T
IGROV-1 = tested on: IGROV-1
K562 = tested on: K562
LOX IMVI = tested on: LOX IMVI
M14 = tested on: M14
MCF7 = tested on: MCF7
MDA-MB-231 = tested on: MDA-MB-231
MDA-MB-435 = tested on: MDA-MB-435
MDA-N = tested on: MDA-N
MOLT-4 = tested on: MOLT-4
Malme-3M = tested on: Malme-3M
NCI-H226 = tested on: NCI-H226
NCI-H23 = tested on: NCI-H23
NCI-H460 = tested on: NCI-H460
NCI-H522 = tested on: NCI-H522
NCI/ADR-RES = tested on: NCI/ADR-RES
OVCAR-3 = tested on: OVCAR-3
OVCAR-4 = tested on: OVCAR-4
OVCAR-5 = tested on: OVCAR-5
OVCAR-8 = tested on: OVCAR-8
PC-3 = tested on: PC-3
RXF 393 = tested on: RXF 393
SF-268 = tested on: SF-268
SF-295 = tested on: SF-295
SF-539 = tested on: SF-539
SK-MEL-28 = tested on: SK-MEL-28
SK-MEL-5 = tested on: SK-MEL-5
SK-OV-3 = tested on: SK-OV-3
SN12C = tested on: SN12C
SNB-19 = tested on: SNB-19
SNB-75 = tested on: SNB-75
SR = tested on: SR
SW-620 = tested on: SW-620
T47D = tested on: T47D
TK-10 = tested on: TK-10
U-251 = tested on: U-251
UACC-257 = tested on: UACC-257
UACC-62 = tested on: UACC-62
UO-31 = tested on: UO-31
A498 = tested on: A498
DU-145 = tested on: DU-145
HL-60 = tested on: HL-60
KM12 = tested on: KM12
RPMI-8226 = tested on: RPMI-8226
SK-MEL-2 = tested on: SK-MEL-2

Structure (SMILES): CN(/N=C/C=N/N(C)C1=NCCCCN1)C1=NCCCCN1
- GI50 (786-0): > 100 µM (inactive)
- GI50 (A549): > 100 µM (inactive)
- GI50 (ACHN): > 100 µM (inactive)
- GI50 (BT-549): > 100 µM (inactive)
- GI50 (CAKI-1): > 100 µM (inactive)
- GI50 (CCRF-CEM): > 100 µM (inactive)
- GI50 (COLO 205): > 100 µM (inactive)
- GI50 (EKVX): > 100 µM (inactive)
- GI50 (HCC 2998): > 100 µM (inactive)
- GI50 (HCT-116): > 100 µM (inactive)
- GI50 (HCT-15): > 100 µM
- GI50 (HOP-62): > 100 µM (inactive)
- GI50 (HT-29): > 100 µM (inactive)
- GI50 (Hs-578T): > 100 µM (inactive)
- GI50 (IGROV-1): > 100 µM (inactive)
- GI50 (K562): > 100 µM (inactive)
- GI50 (LOX IMVI): > 100 µM (inactive)
- GI50 (M14): > 100 µM (inactive)
- GI50 (MCF7): > 100 µM (inactive)
- GI50 (MDA-MB-231): > 100 µM (inactive)
- GI50 (MDA-MB-435): > 100 µM (inactive)
- GI50 (MDA-N): > 100 µM (inactive)
- GI50 (MOLT-4): > 100 µM (inactive)
- GI50 (Malme-3M): > 100 µM (inactive)
- GI50 (NCI-H226): > 100 µM (inactive)
- GI50 (NCI-H23): > 100 µM (inactive)
- GI50 (NCI-H460): > 100 µM (inactive)
- GI50 (NCI-H522): > 100 µM (inactive)
- GI50 (NCI/ADR-RES): > 100 µM (inactive)
- GI50 (OVCAR-3): > 100 µM (inactive)
- GI50 (OVCAR-4): > 100 µM (inactive)
- GI50 (OVCAR-5): > 100 µM (inactive)
- GI50 (OVCAR-8): > 100 µM (inactive)
- GI50 (PC-3): > 100 µM (inactive)
- GI50 (RXF 393): > 100 µM (inactive)
- GI50 (SF-268): > 100 µM (inactive)
- GI50 (SF-295): > 100 µM (inactive)
- GI50 (SF-539): > 100 µM (inactive)
- GI50 (SK-MEL-28): > 100 µM (inactive)
- GI50 (SK-MEL-5): > 100 µM (inactive)
- GI50 (SK-OV-3): > 100 µM (inactive)
- GI50 (SN12C): > 100 µM (inactive)
- GI50 (SNB-19): > 100 µM (inactive)
- GI50 (SNB-75): > 100 µM (inactive)
- GI50 (SR): > 100 µM (inactive)
- GI50 (SW-620): > 100 µM (inactive)
- GI50 (T47D): > 100 µM (inactive)
- GI50 (TK-10): > 100 µM (inactive)
- GI50 (U-251): > 100 µM (inactive)
- GI50 (UACC-257): > 100 µM (inactive)
- GI50 (UACC-62): > 100 µM (inactive)
- GI50 (UO-31): > 100 µM (inactive)

Structure (SMILES): C1=CCC[C@@H]2CN3CCCC/C=C\CCCC[C@H]4C[C@H](CN(CCCCCCCC1)C4)[C@H]2CC3
- GI50 (786-0): 8.67 µM (inactive)
- GI50 (A498): 12.3 µM (inactive)
- GI50 (A549): 9.2 µM (inactive)
- GI50 (ACHN): 9.68 µM (inactive)
- GI50 (BT-549): 12.9 µM (inactive)
- GI50 (CAKI-1): 9.23 µM (inactive)
- GI50 (CCRF-CEM): 12.4 µM (inactive)
- GI50 (COLO 205): 8.28 µM (inactive)
- GI50 (DU-145): 18.2 µM (inactive)
- GI50 (EKVX): 11.3 µM (inactive)
- GI50 (HCC 2998): 7.59 µM (inactive)
- GI50 (HCT-116): 9.12 µM (inactive)
- GI50 (HCT-15): 10.4 µM
- GI50 (HL-60): 12 µM (inactive)
- GI50 (HOP-62): 8.45 µM (inactive)
- GI50 (HT-29): 10.9 µM (inactive)
- GI50 (Hs-578T): 10.3 µM (inactive)
- GI50 (IGROV-1): 10.2 µM (inactive)
- GI50 (K562): 9.79 µM (inactive)
- GI50 (KM12): 7.91 µM (inactive)
- GI50 (LOX IMVI): 8.59 µM (inactive)
- GI50 (M14): 8.97 µM (inactive)
- GI50 (MCF7): 9.18 µM (inactive)
- GI50 (MDA-MB-231): 9.04 µM (inactive)
- GI50 (MDA-MB-435): 8.69 µM (inactive)
- GI50 (MDA-N): 8.79 µM (inactive)
- GI50 (MOLT-4): 9.79 µM (inactive)
- GI50 (Malme-3M): 9.33 µM (inactive)
- GI50 (NCI-H226): > 50 µM (inactive)
- GI50 (NCI-H23): 13.2 µM (inactive)
- GI50 (NCI-H460): 9.75 µM (inactive)
- GI50 (NCI-H522): 9.42 µM (inactive)
- GI50 (OVCAR-3): 8.07 µM (inactive)
- GI50 (OVCAR-4): 12.2 µM (inactive)
- GI50 (OVCAR-5): 10.6 µM (inactive)
- GI50 (OVCAR-8): 9.55 µM (inactive)
- GI50 (PC-3): 12.8 µM (inactive)
- GI50 (RPMI-8226): 8.11 µM (inactive)
- GI50 (SF-268): 10.5 µM (inactive)
- GI50 (SF-295): 9.27 µM (inactive)
- GI50 (SF-539): 7.98 µM (inactive)
- GI50 (SK-MEL-28): 7.93 µM (inactive)
- GI50 (SK-MEL-2): 8.61 µM (inactive)
- GI50 (SK-MEL-5): 9.27 µM (inactive)
- GI50 (SK-OV-3): > 50 µM (inactive)
- GI50 (SN12C): 12.5 µM (inactive)
- GI50 (SNB-19): 10.9 µM (inactive)
- GI50 (SNB-75): 8.95 µM (inactive)
- GI50 (SR): 9.25 µM (inactive)
- GI50 (SW-620): 9.02 µM (inactive)
- GI50 (T47D): 12.7 µM (inactive)
- GI50 (TK-10): 8.83 µM (inactive)
- GI50 (U-251): 8.51 µM (inactive)
- GI50 (UACC-257): 10.2 µM (inactive)
- GI50 (UACC-62): 9.46 µM (inactive)

Structure (SMILES): C[N+](C)(C)CCOP(=O)(O)OP(=O)([O-])OCC1CCC(n2ccc(N)nc2=O)O1 (stereo not drawn)
- GI50 (786-0): > 100 µM (inactive)
- GI50 (BT-549): > 100 µM (inactive)
- GI50 (CCRF-CEM): > 100 µM (inactive)
- GI50 (COLO 205): > 100 µM (inactive)
- GI50 (EKVX): > 100 µM (inactive)
- GI50 (HCT-116): > 100 µM (inactive)
- GI50 (Hs-578T): > 100 µM (inactive)
- GI50 (IGROV-1): > 100 µM (inactive)
- GI50 (MCF7): > 100 µM (inactive)
- GI50 (MDA-MB-231): > 100 µM (inactive)
- GI50 (MDA-N): > 100 µM (inactive)
- GI50 (MOLT-4): > 100 µM (inactive)
- GI50 (NCI/ADR-RES): > 100 µM (inactive)
- GI50 (OVCAR-8): > 100 µM (inactive)
- GI50 (PC-3): > 100 µM (inactive)
- GI50 (RXF 393): > 100 µM (inactive)
- GI50 (SK-MEL-2): > 100 µM (inactive)
- GI50 (SK-OV-3): > 100 µM (inactive)
- GI50 (SNB-19): > 100 µM (inactive)
- GI50 (T47D): > 100 µM (inactive)
- GI50 (U-251): > 100 µM (inactive)
